Source: US7265155B2 (NBS Pharmaceuticals, Inc., priority 1996, dated 2007)
Values joined by “and” are separate entries in the source; they are usually repeats but may differ in a detail not shown here. Identical values can stand only once. “Also recorded” adds a separate entry of the source. Like-named read-outs stand apart in the source and are kept apart here. Marks after values point to notes of the source that are not given here.

Columns and labels:
[1] = in vivo; cited from earlier work
[2] = cited from earlier work
chronic spinalized rat = assay: Flexor reflex (EMG) in the chronic spinalized rat; format: in vivo; settings: 300 mg/kg p.o.; 30, 60, 90 and 120 minutes post-administration
Protocol: With reference to FIG. 3, the polysynaptic flexor-reflex responses, to test stimuli which activate high-threshold afferents, were recorded as EMG activity from the ipsilateral hamstring muscle. Supramaximal electric shocks were applied to the hindpaw, and recording electrodes were placed in the biceps femoris semitendinosus muscle. Five sets of stimuli were made at each time point. The flexor reflex was recorded, in both the pre-drug and the post-drug periods, every 30 minutes once a stable baseline response was achieved. See Hao et al., Eur. J. Pharmacol. 191: 407 (1990).
Thus, the responses were determined in spinalized rats by observing the flexor-reflex response (FIG. 3) before treatment and at each of 30, 60, 90, and 120 minutes following administration of isovaleramide (300 mg/kg p.o.), baclofen (10 mg/kg s.c.) and vehicle (water, 12 ml/kg p.o.), respectively.
In FIG. 4, the responses from FIG. 3 and additional doses of isovaleramide and baclofen are converted to a total-area-under-the-curve format, covering the entire, two-hour measurement period. […] Between the drug-treated groups, no differences were found in total reduction of the flexor reflex over the two-hour period (pairwise multiple comparison, Student-Newman-Keuls method).

[3] = test system: Frings audiogenic seizure-susceptible mouse; assay: Frings audiogenic seizure-susceptible mouse model of epilepsy; format: in vivo; settings: for ED50: Mus musculus
From the text: One useful model is provided by the Frings audiogenic seizure-susceptible mouse, a model of reflex epilepsy. At the time of testing, individual mice are placed into a round Plexiglas chamber and exposed to a sound stimulus of 110 decibels, 11 kHz, for 20 seconds. Animals not displaying tonic hindlimb extensions were considered protected. In addition, the seizure score for each mouse can be recorded as: (1) running for less than 10 seconds; (2) running for greater than 10 seconds; (3) clonic activity of limbs and/or vibrissae; (4) forelimb extension/hindlimb flexion; and (5) hindlimb extension.
(§1) The average seizure score can be calculated for each group of mice employed in the dose-response study. At each dose, mice are also tested on a rotarod for testing of motor impairment (toxicity). Testing for motor impairment on the rotarod involves placing a mouse for a three-minute trial period on a one-inch diameter rod rotating at six revolutions per minute. If the mouse falls off of the rotating rod three times within the three-minute time period, it is considered a toxic response.

amygdala-kindled rat = assay: Anticonvulsant activity in the fully amygdala-kindled rat; format: in vivo; settings: oral dosing, sixty minutes before stimulation
Protocol: Isovaleramide was evaluated for its ability to block the expression of amygdala-kindled seizures in fully kindled rats. Isovaleramide was evaluated for its ability to block the kindled motor seizure (seizure scores of 4 and 5) and limbic behavioral seizures (seizure score between 1-3) as well as to affect changes in afterdischarge duration.
Adult, male Sprague-Dawley rats weighing at least 230 gr were implanted with a teflon-coated bipolar electrode sterotaxically placed in the anterior basolateral nucleus of the amygdala under ketamine and xylazine anesthesia. The electrode was implanted at the following coordinates with Bregma as zero: AP-2.2 mm, ML-4.7 mm, DV-8.7 mm. After a one-week recovery period, animals were kindled to Stage 5 behavioral seizures using a stimulus consisting of a 50 Hz, 1 sec train of 1 ms biphasic 150 uA pulses that were delivered once daily until 10 consecutive stage 5 seizures were evoked. Testing of isovaleramide was initiated after a one-week, stimulus-free period. On the compound test day, rats displaying a stage 5 seizure were divided into multiple treatment groups (i.e., vehicle control and isovaleramide treatment). Sixty minutes after oral dosing, individual rats received a 300 uA, 1 sec duration stimulation and their seizure score and afterdischarge duration recorded. Seizure score was classified according to Racine (Electroencephalogr. Clin. Neurophysiol. 32:281-294, (1972): stage 0: no abnormal behavior; stage 1: mouth or facial movements; stage 2: mouth or facial movements and head nodding; stage 3: stage 2 and forelimb clonus; stage 4: stage 3 and rearing; stage 5: stage 4 and falling. A score of 2-3 represents a focal seizure while a score of 4-5 represents secondarily generalized seizures. Afterdischarge duration was the total duration of the amygdala electroencephalogram spikes with an amplitude of at least twice the amplitude of the prestimulus recording and a frequency greater than 1/sec.

[4] = Rotarod motor impairment (toxicity) in the Frings mouse; format: in vivo; settings: Frings, mouse, in vivo
Protocol: as §1

Frings mouse = assay: as above; format: in vivo
Protocol: as §1

SMILES: CC(C)CC(N)=O [Isovaleramide, isovaleramide]
- anxiolytic properties [1]: clinically useful anxiolytic properties
- acute toxicity in vivo [2]: low acute toxicity in vivo
- magnitude of the flexor reflex (chronic spinalized rat): reduce the magnitude of the flexor-reflex responses, at all time points; also recorded: significant decrease in the magnitude of the flexor reflex, comparable to that observed with baclofen
- Number Protected of Eight Mice Tested ([3]; 75 mg/kg i.p., 15 minutes): 1
- Seizure Score ± S.E.M. ([3]; 75 mg/kg i.p., 15 minutes): 4.4 ± 0.6
- Seizure Score ± S.E.M. ([3]; 100 mg/kg oral): 4.5 ± 0.5
- Number Protected of Eight Mice Tested ([3]; 100 mg/kg oral, measured at 30 minutes): 1
- Number Protected of Eight Mice Tested ([3]; 112.5 mg/kg i.p., 15 minutes): 2
- Seizure Score ± S.E.M. ([3]; 112.5 mg/kg i.p., 15 minutes): 4.0 ± 0.6
- Number Protected of Eight Mice Tested ([3]; 150 mg/kg i.p., 15 minutes): 6
- Seizure Score ± S.E.M. ([3]; 150 mg/kg i.p., 15 minutes): 2.0 ± 0.6
- Seizure Score ± S.E.M. ([3]; 200 mg/kg oral): 2.9 ± 0.8
- Number Protected of Eight Mice Tested ([3]; 200 mg/kg oral, measured at 30 minutes): 4
- Number Protected of Eight Mice Tested ([3]; 300 mg/kg i.p., 15 minutes): 8
- Seizure Score ± S.E.M. ([3]; 300 mg/kg i.p., 15 minutes): 1.0 ± 0
- Seizure Score ± S.E.M. ([3]; 300 mg/kg oral): 1.4 ± 0.5
- Number Protected of Eight Mice Tested ([3]; 300 mg/kg oral, measured at 30 minutes): 7
- Seizure Score ± S.E.M. ([3]; 600 mg/kg oral): 0.25 ± 0.25
- Number Protected of Eight Mice Tested ([3]; 600 mg/kg oral, measured at 30 minutes): 8
- Seizure Score ± S.E.M. ([3]; 1500 mg/kg oral): 0.6 ± 0.2
- Number Protected of Eight Mice Tested ([3]; 1500 mg/kg oral, tested at 4 hours): 8^b
- Seizure Score ± S.E.M. ([3]; 2000 mg/kg oral): 0 ± 0
- Number Protected of Eight Mice Tested ([3]; 2000 mg/kg oral, tested at 4 hours, only seven mice tested): 7^b,d
- ED50 ([3]; ip, 0.25 h, i.p., 15 minutes, read-out: ED50 for protection against tonic extension): 126 mg/kg
- ED50 ([3]; oral, read-out: ED50 for protection): 186 mg/kg
- time course of anticonvulsant activity ([3]; i.p.): noted as early as 15 minutes, but decreased substantially by two hours
- seizure score, dose dependence ([3]; i.p., 15 minutes): dose-dependent reduction in seizure score
- anticonvulsant activity when administered orally ([3]; oral): displayed anticonvulsant activity when administered orally
- afterdischarge duration (amygdala-kindled rat): decreased
- generalized seizure responses of fully kindled rats (amygdala-kindled rat): effective in reducing in a dose-dependent manner the generalized seizure responses; also recorded: effective in reducing, in a dose-dependent manner, the generalized seizure responses
- mean seizure score (amygdala-kindled rat): decreased
- TD50 at 15 min ([4]; ip, 15 minutes, read-out: TD50 for rotarod impairment): 531 mg/kg
- TD50 at 15 min ([4]; oral, read-out: TD50): 1010 mg/kg
- Number Showing Toxicity of Eight Mice Tested (Frings mouse; 75 mg/kg i.p., 15 minutes): 0
- Number Showing Toxicity of Eight Mice Tested (Frings mouse; 112.5 mg/kg i.p., 15 minutes): 0
- Number Showing Toxicity of Eight Mice Tested (Frings mouse; 150 mg/kg i.p., 15 minutes): 0
- Number Showing Toxicity of Eight Mice Tested (Frings mouse; 300 mg/kg i.p., 15 minutes): 1/8 and 1
- Number Showing Toxicity of Eight Mice Tested (Frings mouse; 300 mg/kg oral, tested at 15 minutes): 1
- Number Showing Toxicity of Eight Mice Tested (Frings mouse; 600 mg/kg i.p., 15 minutes): 4/8 and 4
- Number Showing Toxicity of Eight Mice Tested (Frings mouse; 600 mg/kg oral, tested at 15 minutes): 1
- Number Showing Toxicity of Eight Mice Tested (Frings mouse; 1000 mg/kg i.p., 15 minutes): 8/8 and 8
- Number Showing Toxicity of Eight Mice Tested (Frings mouse; 1000 mg/kg oral, tested at 15 minutes): 5
- Number Showing Toxicity of Eight Mice Tested (Frings mouse; 1500 mg/kg oral, tested at 15 minutes): 5
- Number Showing Toxicity of Eight Mice Tested (Frings mouse; 2000 mg/kg oral, tested at 15 minutes, only seven mice tested): 7^d
- rotarod performance in the Frings mouse (Frings mouse; doses up to 512 mg/kg i.p. 15 minutes before test): did not affect performance significantly
- doses at which behavioral toxicity (inability to maintain balance on the rotarod) was displayed (Frings mouse; i.p.): > 300 mg/kg
- doses at which no notable toxicity was observed (Frings mouse; i.p.): less than 300 mg/kg
